System: HIF
Assay: Assay for inhibitory activity against HIF activity (HIF1 luciferase reporter cell line)
Assay type: cell-based, human
Conditions: Homo sapiens; HEK293 HIF1 reporter cell line, 1% oxygen, 6 hours, luciferase activity 50% inhibited
Text: In order to assay the compounds of the present invention for inhibitory activity against HIF activity, the HIF1 reporter plasmid (Panomics) that is designed to control the expression of luciferase by HIF was employed. The HIF1 reporter plasmid and the pTK-Hyg plasmid (Clontech), which carries a hygromycin resistant gene, were co-transfected into the HEK293 cell line (the Korean Cell Line Bank, KCLB No. 21573), derived from the human kidney, with the aid of Effectene transfection reagent (Qiagen). Then, the cells were cultured for 3 weeks on a medium containing 200 μg/mL hygromycin to select transformants resistant to hygromycin. The cell colonies derived from single cells were transferred to 24-well plates to secure a reporter cell line. The cells were seeded at a density of 4×10^4 cells/well into 96-well plates containing DMEM and incubated for 24 hours before treatment with the compounds of the present invention at a concentration of 25 μM, 5 μM, 1 μM, 200 nM, 40 nM, 8 nM, 1.6 nM, 320 pM, 64 pM, 12.8 pM, 2.56 pM, 512 fM, 102 fM, 20.4 fM, or an amount between any two concentrations above as shown in FIGS. 1A to 1C. Under 1% oxygen condition, the cells were incubated for 6 hours and then, the medium was removed. The cells were lyzed by incubation for 5 min with 100 μL of the mixture of Bright-Glo™ luciferase assay buffer and Bright-Glo™ luciferase assay substrate (Promega). The whole cell lysate was transferred to 96-well, white plates (PerkinElmer) and measured for luminescence using Victor™ 3 (PerkinElmer). From the luminescence measurements, IC50 (a concentration of the compound at which luciferase activity was 50% inhibited) was calculated using the GraphPad Prism™ 4 program. The results are summarized in Table 2 and illustrated in FIGS. 1A to 1C.

Row | Compound | IC50
1 | CCCO/N=C/c1ccc(OC)c(OCc2ccccc2/C(=C\OC)C(=O)OC)c1 [Compound 43, (E)-methyl 2-(2-((2-methoxy-5-((E)-(propoxyimino)methyl)phenoxy)-methyl)phenyl)-3-methoxyacrylate] | 960 nM
2 | CO/C=C(/C(=O)OC)c1ccccc1COc1cccc(OCc2ccccn2)c1 [Compound 26, (E)-methyl 2-(2-((3-(pyridin-2-ylmethoxy)phenoxy)methyl)phenyl)-3-methoxyacrylate] | 510 nM
3 | CO/C=C(/C(=O)OC)c1ccccc1COc1c(F)cc(/C=N/OCc2ccccc2)cc1OC [Compound 61, (E)-methyl 2-(2-((4-((E)-(benzyloxyimino)methyl)-2-fluoro-6-methoxyphenoxy)methyl)phenyl)-3-methoxyacrylate] | 5540 nM
4 | CO/C=C(/C(=O)OC)c1ccccc1COc1cc(/C(C)=N/OCCc2ccccc2)ccc1OC [Compound 44, (E)-methyl 2-(2-((2-methoxy-5-((E)-1-(phenylethoxyimino)ethyl)-phenoxy)methyl)phenyl)-3-methoxyacrylate] | 2180 nM
5 | CO/C=C(/C(=O)OC)c1ccccc1COc1cc(/C(C)=N/OCc2ccccc2)ccc1OC [Compound 38, (E)-methyl 2-(2-((5-((E)-1-(benzyloxyimino)ethyl)-2-methoxyphenoxy)-methyl)phenyl)-3-methoxyacrylate] | 1670 nM
6 | CCCO/N=C(\CC)c1cccc(OCc2ccccc2/C(=C\OC)C(=O)OC)c1 [Compound 7, (E)-methyl 2-(2-((3-((E)-1-(propoxyimino)propyl)phenoxy)methyl)-phenyl)-3-methoxyacrylate] | 5070 nM
7 | CO/C=C(/C(=O)OC)c1ccccc1COc1cccc(OCCc2ccccc2)c1 [Compound 16, (E)-methyl 2-(2-((3-phenethoxyphenoxy)methyl)phenyl)-3-methoxyacrylate] | 340 nM
8 | CO/C=C(/C(=O)OC)c1ccccc1COc1cccc(/C=N/N2CCOCC2)c1 [Compound 25, (E)-methyl 3-methoxy-2-(2-((3-((E)-(morpholinoimino)methyl)phenoxy)-methyl)phenyl)acrylate] | 440 nM
9 | CC/C(=N\N1CCOCC1)c1cc(C)c(OCc2ccccc2/C(=C\OC)C(=O)OC)cc1C [Compound 30, (E)-methyl 2-(2-((2,5-dimethyl-4-((E)-1-(morpholinoimino)propyl)-phenoxy)methyl)phenyl)-3-methoxyacrylate] | 4140 nM
10 | CO/C=C(/C(=O)OC)c1ccccc1COc1cc(C)c(/C=N/OCC2CO2)cc1C (stereo not drawn) [Compound 52, (E)-methyl 2-(2-((2,5-dimethyl-4-((E)-(oxirane-2-ylmethoxyimino)-methyl)phenoxy)methyl)phenyl)-3-methoxyacrylate] | 2250 nM
11 | CO/C=C(/C(=O)OC)c1ccccc1COc1cccc(OCCN2CCOCC2)c1 [Compound 76, (E)-methyl 2-(2-((3-(2-morpholinoethoxy)phenoxy)methyl)phenyl)-3-methoxyacrylate] | 1500 nM
12 | CO/C=C(/C(=O)OC)c1ccccc1COc1cc(C)cc(OCc2ccccc2)c1C [Compound 41, (E)-methyl 2-(2-((3-(benzyloxy)-2,5-dimethylphenoxy)methyl)phenyl)-3-methoxyacrylate] | 6120 nM
13 | CO/C=C(/C(=O)OC)c1ccccc1COc1cc(C)c(/C=N/OCCN2CCCCC2)cc1C [Compound 54, (E)-methyl 2-(2-((2,5-dimethyl-4-((E)-(2-(piperidin-1-yl)ethoxyimino)-methyl)phenoxy)methyl)phenyl)-3-methoxyacrylate] | 6630 nM
14 | CO/C=C(/C(=O)OC)c1ccccc1COc1cc(/C(C)=N/O)ccc1OC [Compound 37, (E)-methyl 2-(2-((5-((E)-1-(hydroxyimino)ethyl)-2-methoxyphenoxy)-methyl)phenyl)-3-methoxyacrylate] | 7220 nM
15 | CO/C=C(/C(=O)OC)c1ccccc1COc1cc(/C=N/OCc2ccc(C)cc2)ccc1OC [Compound 58, (E)-methyl 2-(2-((2-methoxy-5-((E)-1-(4-methylbenzyloxyimino)methyl)-phenoxy)methyl)phenyl)-3-methoxyacrylate] | 1260 nM
16 | CO/C=C(/C(=O)OC)c1ccccc1COc1c(F)cc(/C=N/OCCc2ccccc2)cc1OC [Compound 66, (E)-methyl 2-(2-((2-fluoro-6-methoxy-4-((E)-(phenethoxyimino)methyl)-phenoxy)methyl)phenyl)-3-methoxyacrylate] | 900 nM
17 | CO/C=C(/C(=O)OC)c1ccccc1COc1ccc(/C=N/O)cc1C [Compound 31, (E)-methyl 2-(2-((4-((E)-(hydroxyimino)methyl)-2-methylphenoxy)-methyl)phenyl)-3-methoxyacrylate] | 1730 nM
18 | CO/C=C(/C(=O)OC)c1ccccc1COc1cc(O)cc(OCc2ccccn2)c1 [Compound 28, (E)-methyl 2-(2-((3-hydroxy-5-(pyridin-2-ylmethoxy)phenoxy)methyl)-phenyl)-3-methoxyacrylate] | 710 nM
19 | CO/C=C(/C(=O)OC)c1ccccc1COc1cc(/C(C)=N/OCc2ccc(C)cc2)ccc1OC [Compound 57, (E)-methyl 2-(2-((2-methoxy-5-((E)-1-(4-methylbenzyloxyimino)ethyl)-phenoxy)methyl)phenyl)-3-methoxyacrylate] | 3940 nM
20 | CO/C=C(/C(=O)OC)c1ccccc1COc1cc(C)c(/C=N/OCc2cccc(OC)c2)cc1C [Compound 72, (E)-methyl 2-(2-((4-((E)-(3-methoxybenzyloxyimino)methyl)-2,5-dimethylphenoxy)methyl)phenyl)-3-methoxyacrylate] | 180 nM
21 | CO/C=C(/C(=O)OC)c1ccccc1COc1cc(O)cc(OCc2ccncc2)c1 [Compound 29, (E)-methyl 2-(2-((3-hydroxy-5-(pyridin-4-ylmethoxy)phenoxy)methyl)-phenyl)-3-methoxyacrylate] | 11000 nM
22 | CCCOc1cc(C)cc(OCc2ccccc2/C(=C\OC)C(=O)OC)c1C [Compound 40, (E)-methyl 2-(2-((2,5-dimethyl-3-propoxyphenoxy)methyl)phenyl)-3-methoxyacrylate] | 12600 nM

Compounds with a lower IC50, results first:

Row | IC50 | Compound
23 | 60 nM | CO/C=C(/C(=O)OC)c1ccccc1COc1ccc(/C=N/OCC2CC2)cc1C [Compound 67, (E)-methyl 2-(2-((4-((E)-(cyclopropylmethoxyimino)methyl)-2-methylphenoxy)methyl)phenyl)-3-methoxyacrylate]
24 | 2 nM | CO/C=C(/C(=O)OC)c1ccccc1COc1cc(C)c(-c2ccn(C)n2)cc1C [Compound 82, (E)-methyl 3-methoxy-2-(2-((2,5-dimethyl-4-(1-methyl-1H-pyrazol-3-yl)phenoxy)methyl)phenyl)acrylate]
25 | 30 nM | CO/C=C(/C(=O)OC)c1ccccc1COc1cc(C)c(/C=N/OC2CCCC2)cc1C [Compound 69, (E)-methyl 2-(2-((4-((E)-(cyclopentyloxyimino)methyl)-2,5-dimethylphenoxy)methyl)phenyl)-3-methoxyacrylate]
26 | 70 nM | CO/C=C(/C(=O)OC)c1ccccc1COc1cc(C)c(/C=N/OCc2ccccc2)cc1C [Compound 50, (E)-methyl 2-(2-((4-((E)-(benzyloxyimino)methyl)-2,5-dimethylphenoxy)-methyl)phenyl)-3-methoxyacrylate]
27 | 1 nM | CCCO/N=C(\CC)c1cc(C)c(OCc2ccccc2/C(=C\OC)C(=O)OC)cc1C [Compound 1, (E)-methyl 2-(2-((2,5-dimethyl-4-((E)-1-(propoxyimino)propyl)phenoxy)-methyl)phenyl)-3-methoxyacrylate]
28 | 30 nM | CO/C=C(/C(=O)OC)c1ccccc1COc1cccc(/C=N/Oc2ccccc2)c1 [Compound 47, (E)-methyl 2-(2-((3-((E)-1-(phenoxyimino)methyl)phenoxy)methyl)-phenyl)-3-methoxyacrylate]
29 | 7 nM | CO/C=C(/C(=O)OC)c1ccccc1COc1cc(C)c(/C=N/OCC2CC2)cc1C [Compound 68, (E)-methyl 2-(2-((4-((E)-(cyclopropylmethoxyimino)methyl)-2,5-dimethylphenoxy)methyl)phenyl)-3-methoxyacrylate]
30 | 20 nM | CO/C=C(/C(=O)OC)c1ccccc1COc1cc(C)c(/C=N/OCCCOc2ccccc2)cc1C [Compound 71, (E)-methyl 2-(2-((2,5-dimethyl-4-((E)-(3-phenoxypropyloxyimino)-methyl)phenoxy)methyl)phenyl)-3-methoxyacrylate]
31 | 37 nM | CO/C=C(/C(=O)OC)c1ccccc1COc1cc(C)c(-c2cnco2)cc1C [Compound 81, (E)-methyl 3-methoxy-2-(2-((2,5-dimethyl-4-(oxazol-5-yl)phenoxy)-methyl)phenyl)acrylate]
32 | 61 nM | CO/C=C(/C(=O)OC)c1ccccc1COc1cc(C)c(/C(C)=N/OCc2ccccn2)cc1C [Compound 79, (E)-methyl 2-(2-((2,5-dimethyl-4-((E)-1-(pyridin-2-ylmethoxyimino)-ethyl)phenoxy)methyl)phenyl)-3-methoxyacrylate]
33 | 40 nM | CO/C=C(/C(=O)OC)c1ccccc1COc1cc(C)c(/C=N/Oc2ccccc2)cc1C [Compound 63, (E)-methyl 2-(2-((2,5-dimethyl-4-((E)-(phenoxyimino)methyl)phenoxy)-methyl)phenyl)-3-methoxyacrylate]

Reference: patent US8772290B2, “Alpha-arylmethoxyacrylate derivative, preparation method thereof, and pharmaceutical composition containing same” (Oscotech Inc., priority 2010, dated 2014)
